Test system: AGS
Assay: Cell proliferation experiment (CellTiter-Glo)
Format: cell-based
Conditions: AGS, KRAS mutation type G12D; 96 h incubation; read-out: IC50(nM) AGS

**Q.** How did the IC50 turn out when `CCc1c(F)ccc2cc(O)cc(-c3ncc4c(N5CCC[C@@](C)(O)C5)nc(OCC5(CN6CCN(C7CCN(c8cc([C@H](C(=O)N9C[C@H](O)C[C@H]9C(=O)N[C@H](C)c9ccc(-c%10scnc%10C)cc9)C(C)C)on8)CC7)CC6)CC5)nc4c3F)c12` [Compound 164] was run?
**A.** 38 nM

**Q.** Which IC50 does the source give for `CCc1c(F)ccc2cc(O)cc(-c3ncc4c(N5CCC[C@@](C)(O)C5)nc(OCC5(CN6CCC(Oc7ccc(-c8cn([C@H](C(=O)N9C[C@H](O)C[C@H]9C(=O)N[C@@H](C)c9ccc(-c%10scnc%10C)cc9)C(C)C)nn8)nn7)CC6)CC5)nc4c3F)c12` [Compound 167] here?
**A.** 8.8 nM

**Q.** For `CCc1c(F)ccc2cc(O)cc(-c3ncc4c(N5CCC[C@@](C)(O)C5)nc(OCC5(CN6CCC(Oc7ccc(-c8cn([C@H](C(=O)N9C[C@H](O)C[C@H]9C(=O)N[C@@H](CO)c9ccc(-c%10scnc%10C)cc9)C(C)C)nn8)cn7)CC6)CC5)nc4c3F)c12` [Compound 171], which IC50 is on record?
**A.** 13 nM

**Q.** Which IC50 does the source give for `CCc1c(F)ccc2cc(O)cc(-c3ncc4c(N5CCC[C@@](C)(O)C5)nc(OCC5(CN6CCC(Oc7ncc(-c8cn([C@H](C(=O)N9C[C@H](O)C[C@H]9C(=O)N[C@@H](C)c9ccc(-c%10scnc%10C)cc9)C(C)C)nn8)s7)CC6)CC5)nc4c3F)c12` [Compound 181] here?
**A.** 11 nM

**Q.** For `CCc1c(F)ccc2cc(O)cc(-c3ccc4c(N5CCC[C@@](C)(O)C5)nc(OCC5(CN6CCC7(CC6)CN(c6cnc(-c8cn([C@H](C(=O)N9C[C@H](O)C[C@H]9C(=O)N[C@@H](C)c9ccc(-c%10scnc%10C)cc9)C(C)C)nn8)cn6)C7)CC5)nc4c3F)c12` [Compound 186], which IC50 is on record?
**A.** 20 nM

**Q.** How did the IC50 turn out when `CCc1c(F)ccc2cc(O)cc(-c3ncc4c(N5CCC[C@@](C)(O)C5)nc(OCC5(CN6CCN(Cc7cnc(-c8cn([C@H](C(=O)N9C[C@H](O)C[C@H]9C(=O)N[C@@H](C)c9ccc(-c%10scnc%10C)cc9)C(C)C)nn8)s7)CC6)CC5)nc4c3F)c12` [Compound 187] was run?
**A.** 7.5 nM

**Q.** Which IC50 does the source give for “(2S,4R)-1-((S)-2-(4-(1-((1-((1-(((7-(8-ethyl-7-fluoro-3-hydroxynaphthalen-1-yl)-8-fluoro-4-((R)-3-hydroxy-3-methylpiperidin-1-yl)pyrido[4,3-d]pyrimidin-2-yl)oxy)methyl)piperidin-4-yl)methy l)azetidin-3-yl)-1H-1,2,3-triazol-1-yl)-3-methylbutanoyl)-4-hydroxy-N-((S)-1-(4-(4-methylthiaz ol-5-yl)phenyl)ethyl)pyrrolidine-2-carboxamide [Compound 129]” here?
**A.** 37 nM

**Q.** “(2S,4R)-1-((S)-2-(4-(3-((1-((1-((7-(8-ethyl-7-fluoro-3-hydroxynaphthalen-1-yl)-8-fluoro-4-((R)-3-hydroxy-3-methylpiperidin-1-yl)pyrido[4,3-d]pyrimidin-2-yl)oxy)methyl)cyclopropyl)methyl) piperidin-4-yl)methyl)amino)bicyclo[1.1.1]pent-1-yl)-1H-1,3-triazol-1-yl)-3-methylbutanoyl)-4-hydroxy-N-((S)-1-(4-(4-methylthiazol-5-yl)phenyl)ethyl)pyrrolidine-2-carboxamide [Compound 180]” was tested. Which IC50 did it give?
**A.** 20 nM

**Q.** Which IC50 does the source give for “(2S,4R)-1-((S)-2-(4-(5-(1-((1-((7-(8-ethyl-7-fluoro-3-hydroxynaphthalen-1-yl)-8-fluoro-4-((R)-3 -hydroxy-3-methylpiperidin-1-yl)pyrido[4,3-d]pyrimidin-2-yl)oxy)methyl)cyclopropyl)methyl)p iperidin-4-yl)oxy)pyrimidin-2-yl)-1H-1,2,3-triazol-1-yl)-3-methylbutanoyl)-4-hydroxy-N-((S)-1-(4-hydroxyl-N-(4-(4-methylthiazol-5-yl)phenyl)ethyl)pyrrolidine-2-carboxamide [Compound 169]” here?
**A.** 20 nM

**Q.** For “(2S,4R)-1-((S)-2-(4-(5-(7-((7-(8-ethyl-7-fluoro-3-hydroxynaphthalen-1-yl)-8-fluoro-4-((R)-3-hy droxy-3-methylpiperidin-1-yl)pyrido[4,3-d]pyrimidin-2-yl)oxy)methyl)cyclopropyl)methyl)-2,7-azaspiro[3.5]nonan-2-yl)pyrazin-2-yl)-1H-1,2,3-triazol-1-yl)-3-methylbutanoyl)-4-hydroxy-N-(( S)-1-(4-methylthiazol-5-yl)phenyl)ethyl)pyrrolidine-2-carboxamide [Compound 168]”, which IC50 is on record?
**A.** 5.6 nM

**Q.** How did the IC50 turn out when “(2S,4R)-1-((S)-2-(4-(5-((((3R,7aR)-7a-(((7-(8-ethyl-7-fluoro-3-hydroxynaphthalen-1-yl)-8-fluor o-4-((R)-3-hydroxy-3-methylpiperidin-l-yl)pyrido[4,3-d]pyrimidin-2-yl)oxy)methyl)hexahydro-1H-pyrrolizin-3-yl)methoxy)pyrazin-2-yl)-1H-1,2,3-triazol-1-yl)-3-methylbutanoyl)-4-hydroxy-N-((S)-1-(4-(4-methylthiazol-5-yl)phenyl)ethyl)pyrrolidine-2-carboxamide [Compound 188]” was run?
**A.** 12 nM

**Q.** Which IC50 does the source give for “(3S,7aS)-7a-((7-(7-(8-ethyl-7-fluoro-3-hydroxynaphthalen-1-yl)-8-fluoro-4-((R)-3-hydroxy-3-m ethylpiperidin-1-yl)pyrido[4,3-d]pyrimidin-2-yl)pyrimidin-2-yl)oxy)methyl)-6-methylenehexahy dro-1H-pyrrolizin-3-yl)methyl-4-(((5-(R)-1-(2S,4R)-4-hydroxy-2-(((S)-1-(4-(4-methylthiazol-5-yl)phenyl)ethyl)carbamoyl)pyrrolidin-1-yl)-3-methyl-1-oxobutan-2-yl)isoxazol-3-yl)oxy)methyl )piperidine-1-carboxylate [Compound 125]” here?
**A.** 52 nM

Same assay, conditions: Homo sapiens, AGS, 96 h, read-out: IC50(nM) AGS

**Q.** How did the IC50 turn out when `C=C1CN2[C@H](CN3CCC(c4cn([C@H](C(=O)N5C[C@H](O)C[C@H]5C(=O)N[C@@H](C)c5ccc(-c6scnc6C)cc5)C(C)C)nn4)CC3)CC[C@@]2(COc2nc(N3CCC[C@@](C)(O)C3)c3cnc(-c4cc(O)cc5ccc(F)c(CC)c45)c(F)c3n2)C1` [Compound 123] was run?
**A.** 82 nM

**Q.** For `CCc1c(F)ccc2cc(O)cc(-c3ncc4c(N5CCC[C@@](C)(O)C5)nc(OCC5(CN6CCN(C7CC(c8cn([C@H](C(=O)N9C[C@H](O)C[C@H]9C(=O)N[C@@H](C)c9ccc(-c%10scnc%10C)cc9)C(C)C)nn8)C7)CC6)CC5)nc4c3F)c12` (stereo partly drawn) [Compound 165, (2S,4R)-1-((S)-2-(4-(3-(4-((1-(((7-(8-ethyl-7-fluoro-3-hydroxynaphthalen-1-yl)-8-fluoro-4-((R)-3-hydroxy-3-methylpiperidin-1-yl)pyrido[4,3-d]pyrimidin-2-yl)oxy)methyl)cyclopropyl)methyl)piperazin-1-yl)cyclobutyl)-1H-1,2,3-triazol-1-yl)-3-methylbutanoyl)-4-hydroxy-N-((S)-1-(4-(4-methylthiazol-5-yl)phenyl)ethyl)pyrrolidine-2-carboxamide], which IC50 is on record?
**A.** 9.2 nM

Same assay, conditions: read-out: IC50(nM) AGS

**Q.** Which IC50 does the source give for `C#Cc1c(F)ccc2cc(O)cc(-c3ncc4c(N5CCCOCC5)nc(OC[C@]56CCCN5[C@@H](COC(=O)N5CCC7(CC5)CC(C(=O)N[C@H](C(=O)N5C[C@H](O)C[C@H]5C(=O)N[C@@H](C)c5ccc(-c8scnc8C)cc5)C(C)(C)C)C7)CC6)nc4c3F)c12` [Compound 90] here?
**A.** 83 nM

**Q.** How did the IC50 turn out when `C=C1CN2[C@H](COC(=O)N3CCN(c4cc([C@H](C(=O)N5C[C@H](O)C[C@H]5C(=O)N[C@@H](C)c5ccc(-c6scnc6C)cc5)C(C)C)on4)CC3)CC[C@@]2(COc2nc(N3CCC[C@@](C)(O)C3)c3cnc(-c4cc(O)cc5ccc(F)c(CC)c45)c(F)c3n2)C1` [Compound 110] was run?
**A.** 52 nM

**Q.** For `CCc1c(F)ccc2cc(O)cc(-c3ncc4c(N5CCC[C@@](C)(O)C5)nc(OCC5(CN6CCC(Oc7cnc(-c8cn([C@H](C(=O)N9C[C@H](O)C[C@H]9C(=O)N[C@@H](CO)c9ccc(-c%10ccnn%10CC)cc9)C(C)C)nn8)cn7)CC6)CC5)nc4c3F)c12` [Compound 172], which IC50 is on record?
**A.** 3.6 nM

**Q.** How did the IC50 turn out when “(2S,4R)-1-((S)-2-(4-(1-((1-((1-(((7-(8-ethyl-7-fluoro-3-hydroxynaphthalen-1-yl)-8-fluoro-4-((R)-3-hydroxy-3-methylpiperidin-1-yl)pyrido[4,3-d]pyrimidin-2-yl)oxy)methyl)cyclopropyl)methyl) piperidin-4-yl)methyl)-1H-pyrazol-4-yl)-1H-1,2,3-triazol-1-yl)-3-methylbutanoyl)-4-hydroxy-N-((S)-1-(4-(4-methylthiazol-5-yl)phenyl)ethyl)pyrrolidine-2-carboxamide [Compound 182]” was run?
**A.** 24 nM

**Q.** “(2S,4R)-1-((S)-2-(4-(5-((4-((1-(((7-(8-ethyl-7-fluoro-3-hydroxynaphthalen-1-yl)-8-fluoro-4-((R)-3-hydroxy-3-methylpiperidin-1-yl)pyrido[4,3-d]pyrimidin-2-yl)oxy)methyl)cyclopropyl)methyl) piperazin-1-yl)methyl)piperazin-3-yl)-1H-1,2,3-triazol-1-yl)-3-methylbutanoyl)-4-hydroxy-N-((S )-1-(4-(4-methylthiazol-5-yl)phenyl)ethyl)pyrrolidine-2-carboxamide [Compound 177]” was tested. Which IC50 did it give?
**A.** 4.2 nM

**Q.** With “(2S,4R)-1-((S)-2-(4-(6-((1-((1-(((7-(8-ethyl-7-fluoro-3-hydroxynaphthalen-1-yl)-8-fluoro-4-((R)-3-hydroxy-3-methylpiperidin-1-yl)pyrido[4,3-d]pyrimidin-2-yl)oxy)methyl)cyclopropyl)methyl) -4-methylpiperidin-4-yl)oxy)piperidin-3-yl)-1H-1,2,3-triazol-1-yl)-3-methylbutanoyl)-4-hydroxy -N-((S)-1-(4-(4-methylthiazol-5-yl)phenyl)ethyl)pyrrolidine-2-carboxamide [Compound 176]” as the compound, how does the IC50 read?
**A.** 33 nM

**Q.** “(2S,4R)-1-((S)-2-(4-(6-((4-((1-(((7-(8-ethyl-7-fluoro-3-hydroxynaphthalen-1-yl)-8-fluoro-4-((R)-3-hydroxy-3-methylpiperidin-1-yl)pyrido[4,3-d]pyrimidin-2-yl)oxy)methyl)cyclopropyl)methyl) pyridin-1-yl)methyl)pyridin-3-yl)-1H-1,2,3-triazol-1-yl)-3-methylbutanoyl)-4-hydroxy-N-((S)-1-(4-(4-methylthiazol-5-yl)phenyl)ethyl)pyrrolidine-2-carboxamide [Compound 179]” was tested. Which IC50 did it give?
**A.** 27 nM

Target: KRAS G12D (Homo sapiens, UniProt P01116, G12D)
Sequence (P01116 1-188 isoform P01116-2 G12D): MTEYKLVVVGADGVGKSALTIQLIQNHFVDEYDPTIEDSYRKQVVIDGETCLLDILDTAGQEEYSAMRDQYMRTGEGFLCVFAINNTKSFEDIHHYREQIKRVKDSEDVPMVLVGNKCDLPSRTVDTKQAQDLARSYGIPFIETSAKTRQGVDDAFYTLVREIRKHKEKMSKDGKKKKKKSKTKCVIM
Assay: not given
Conditions: not given

**Q.** Which DC50 does the source give for `C=C1CN2[C@H](CN3CCC(c4cn([C@H](C(=O)N5C[C@H](O)C[C@H]5C(=O)N[C@@H](C)c5ccc(-c6scnc6C)cc5)C(C)C)nn4)CC3)CC[C@@]2(COc2nc(N3CCC[C@@](C)(O)C3)c3cnc(-c4cc(O)cc5ccc(F)c(CC)c45)c(F)c3n2)C1` [Compound 123] here?
**A.** 0.122 µM

From EP4631940A1, “COMPOUND TARGETING PAN-KRAS PROTEIN DEGRADATION AGENT AND USE THEREOF” (Betta Pharmaceuticals Co., Ltd., priority 2022, dated 2024)
